Assay results taken from the NIST ThermoML archive (doi:10.1021/acs.jced.8b00132).
Several values for one entry are separate records, joined by “and”; a condition that tells them apart may be missing. Equal entries are not always repeated.

O=C(C(F)(F)C(F)(F)F)C(F)(C(F)(F)F)C(F)(F)F [dodecafluoro-2-methylpentan-3-one]
Conditions | thermal conductivity
300.81 K, 35 kPa, Gas, hot wire | 0.0117 W/m/K and 0.01167 W/m/K
300.82 K, 27 kPa, Gas, hot wire | 0.01167 W/m/K
301.02 K, 35 kPa, Gas, hot wire | 0.01175 W/m/K and 0.01169 W/m/K
301.02 K, 40 kPa, Gas, hot wire | 0.01176 W/m/K and 0.01171 W/m/K
301.04 K, 26 kPa, Gas, hot wire | 0.01169 W/m/K
301.04 K, 27 kPa, Gas, hot wire | 0.01166 W/m/K
301.12 K, 68548 kPa, Liquid, transient hot wire | 0.07848 W/m/K
301.12 K, 68619 kPa, Liquid, transient hot wire | 0.07853 W/m/K
301.16 K, 59412 kPa, Liquid, transient hot wire | 0.07633 W/m/K
301.16 K, 59421 kPa, Liquid, transient hot wire | 0.07635 W/m/K
301.2 K, 15856 kPa, Liquid, transient hot wire | 0.06469 W/m/K
301.2 K, 15861 kPa, Liquid, transient hot wire | 0.06419 W/m/K
301.2 K, 48052 kPa, Liquid, transient hot wire | 0.07348 W/m/K
301.21 K, 48059 kPa, Liquid, transient hot wire | 0.07348 W/m/K
301.23 K, 38563 kPa, Liquid, transient hot wire | 0.07045 W/m/K
301.23 K, 38570 kPa, Liquid, transient hot wire | 0.07088 W/m/K
301.25 K, 35 kPa, Gas, hot wire | 0.01177 W/m/K and 0.01172 W/m/K
301.25 K, 40 kPa, Gas, hot wire | 0.01175 W/m/K and 0.01177 W/m/K
301.26 K, 29951 kPa, Liquid, transient hot wire | 0.06831 W/m/K
301.26 K, 29959 kPa, Liquid, transient hot wire | 0.06831 W/m/K
301.27 K, 26 kPa, Gas, hot wire | 0.0117 W/m/K
301.27 K, 27 kPa, Gas, hot wire | 0.01169 W/m/K
301.27 K, 22365 kPa, Liquid, transient hot wire | 0.06588 W/m/K
301.27 K, 22366 kPa, Liquid, transient hot wire | 0.06588 W/m/K
301.29 K, 68411 kPa, Liquid, transient hot wire | 0.07844 W/m/K
301.3 K, 68477 kPa, Liquid, transient hot wire | 0.07847 W/m/K
301.31 K, 15646 kPa, Liquid, transient hot wire | 0.06353 W/m/K
301.32 K, 15647 kPa, Liquid, transient hot wire | 0.06353 W/m/K
301.32 K, 15982 kPa, Liquid, transient hot wire | 0.06426 W/m/K
301.32 K, 68614 kPa, Liquid, transient hot wire | 0.07896 W/m/K
301.33 K, 15978 kPa, Liquid, transient hot wire | 0.06437 W/m/K
301.33 K, 58469 kPa, Liquid, transient hot wire | 0.07677 W/m/K
301.33 K, 68621 kPa, Liquid, transient hot wire | 0.07913 W/m/K
301.34 K, 29983 kPa, Liquid, transient hot wire | 0.06887 W/m/K
301.34 K, 38644 kPa, Liquid, transient hot wire | 0.07116 W/m/K
301.34 K, 38645 kPa, Liquid, transient hot wire | 0.07082 W/m/K
301.34 K, 48192 kPa, Liquid, transient hot wire | 0.07381 W/m/K
301.34 K, 48193 kPa, Liquid, transient hot wire | 0.07385 W/m/K
301.34 K, 58483 kPa, Liquid, transient hot wire | 0.07689 W/m/K
301.35 K, 9734 kPa, Liquid, transient hot wire | 0.06181 W/m/K
301.35 K, 9737 kPa, Liquid, transient hot wire | 0.06163 W/m/K
301.35 K, 29988 kPa, Liquid, transient hot wire | 0.06876 W/m/K
301.35 K, 59394 kPa, Liquid, transient hot wire | 0.07632 W/m/K
301.35 K, 59405 kPa, Liquid, transient hot wire | 0.07636 W/m/K
301.36 K, 186 kPa, Liquid, transient hot wire | 0.05707 W/m/K
301.36 K, 22446 kPa, Liquid, transient hot wire | 0.0654 W/m/K
301.37 K, 186 kPa, Liquid, transient hot wire | 0.05699 W/m/K
301.37 K, 4437 kPa, Liquid, transient hot wire | 0.05962 W/m/K
301.37 K, 4442 kPa, Liquid, transient hot wire | 0.05915 W/m/K
301.37 K, 22450 kPa, Liquid, transient hot wire | 0.06542 W/m/K
301.38 K, 9940 kPa, Liquid, transient hot wire | 0.06178 W/m/K
301.39 K, 94 kPa, Liquid, transient hot wire | 0.05683 W/m/K
301.39 K, 100 kPa, Liquid, transient hot wire | 0.05659 W/m/K
301.39 K, 9943 kPa, Liquid, transient hot wire | 0.06137 W/m/K
301.39 K, 68810 kPa, Liquid, transient hot wire | 0.07913 W/m/K
301.39 K, 68825 kPa, Liquid, transient hot wire | 0.07893 W/m/K
301.4 K, 48039 kPa, Liquid, transient hot wire | 0.0735 W/m/K
301.4 K, 48041 kPa, Liquid, transient hot wire | 0.07342 W/m/K
301.41 K, 182 kPa, Liquid, transient hot wire | 0.057 W/m/K
301.42 K, 181 kPa, Liquid, transient hot wire | 0.05699 W/m/K
301.43 K, 4512 kPa, Liquid, transient hot wire | 0.0591 W/m/K
301.43 K, 4517 kPa, Liquid, transient hot wire | 0.05911 W/m/K
301.43 K, 38558 kPa, Liquid, transient hot wire | 0.0709 W/m/K
301.44 K, 38562 kPa, Liquid, transient hot wire | 0.07087 W/m/K
301.46 K, 29951 kPa, Liquid, transient hot wire | 0.06828 W/m/K
301.47 K, 29958 kPa, Liquid, transient hot wire | 0.0683 W/m/K
301.48 K, 22365 kPa, Liquid, transient hot wire | 0.06549 W/m/K
301.49 K, 22364 kPa, Liquid, transient hot wire | 0.06585 W/m/K
301.49 K, 68338 kPa, Liquid, transient hot wire | 0.07849 W/m/K
301.5 K, 35 kPa, Gas, hot wire | 0.01174 W/m/K
301.5 K, 40 kPa, Gas, hot wire | 0.01178 W/m/K
301.5 K, 41 kPa, Gas, hot wire | 0.01177 W/m/K
301.5 K, 68274 kPa, Liquid, transient hot wire | 0.07839 W/m/K
301.51 K, 35 kPa, Gas, hot wire | 0.01178 W/m/K
301.52 K, 27 kPa, Gas, hot wire | 0.01171 W/m/K
301.53 K, 27 kPa, Gas, hot wire | 0.0117 W/m/K
301.54 K, 121 kPa, Liquid, transient hot wire | 0.05731 W/m/K and 0.05707 W/m/K
301.54 K, 15641 kPa, Liquid, transient hot wire | 0.06381 W/m/K
301.54 K, 15643 kPa, Liquid, transient hot wire | 0.06352 W/m/K
301.54 K, 59383 kPa, Liquid, transient hot wire | 0.07629 W/m/K
301.54 K, 59392 kPa, Liquid, transient hot wire | 0.07615 W/m/K
301.56 K, 34 kPa, Gas, transient hot wire | 0.01199 W/m/K
301.57 K, 34 kPa, Gas, transient hot wire | 0.01211 W/m/K
301.59 K, 15866 kPa, Liquid, transient hot wire | 0.06262 W/m/K
